Active and inactive are the calls of the source. No rule for the calls is given here.
Test system: GENE-TOX genotoxicity assays, various organisms and cells
Assay: GENE-TOX mutagenicity studies
Details: for call: Assay Type: In vivo carcinogenicity studies
[1] = Species/Cell Type: Chinese hamster ovary (CHO) cells, Assay Type: Forward gene mutation at the HPRT locus, Assay Code: CHOT, Evaluation Type: Evaluation B (Post-1980)
[2] = Species/Cell Type: Salmonella typhimurium (one or more of the five standard strains: TA98, TA100, TA1535, TA1537, and TA1538), Assay Type: Histidine reverse gene mutation, Ames assay, Assay Code: SAL+*, Activation: With metabolic activation, Evaluation Type: Evaluation A (Pre-1980)
[3] = Species/Cell Type: Human lymphocytes, Assay Type: Sister-chromatid exchange (SCE) in vitro, Assay Code: SCLT, Evaluation Type: Evaluation B (Post-1980)
[4] = Species/Cell Type: Human, Assay Type: Sister-chromatid exchange (SCE) in vitro, Assay Code: SC1T, Evaluation Type: Evaluation B (Post-1980)
[5] = Species/Cell Type: Nonhuman, Assay Type: Sister-chromatid exchange (SCE) in vitro, Assay Code: SC2+D, Dose Response: With dose response, Evaluation Type: Evaluation B (Post-1980)
[6] = Species/Cell Type: Salmonella typhimurium (one or more of the five standard strains: TA98, TA100, TA1535, TA1537, and TA1538), Assay Type: Histidine reverse gene mutation, Ames assay, Assay Code: SAL+, Evaluation Type: Evaluation A (Pre-1980)
[7] = Species/Cell Type: Nonhuman, Assay Code: CCG-, Evaluation Type: Evaluation A (Pre-1980)
[8] = Species/Cell Type: Escherichia coli polA (W3119 vs P3478), Assay Type: Rec-assay, DNA effects (bacterial DNA repair), Assay Code: RE1T, Evaluation Type: Evaluation A (Pre-1980)
[9] = Species/Cell Type: Nonhuman, Assay Code: CCG+, Evaluation Type: Evaluation A (Pre-1980)
[10] = Species/Cell Type: Nonhuman, Assay Type: Sister-chromatid exchange (SCE) in vitro, Assay Code: SC2+, Evaluation Type: Evaluation B (Post-1980)
[11] = Species/Cell Type: Nonhuman, Assay Type: Sister-chromatid exchange (SCE) in vivo, Assay Code: SC3T, Evaluation Type: Evaluation B (Post-1980)

COc1ccc2nc3cc(Cl)ccc3c(NCCCNCCO)c2n1 was tested, and the mutagenic call [1] was “no conclusion”.

In the case of Cc1c2c(c3ccc4ccccc4c3c1C)CCC2=O, the mutagenic call [2] is reported as “active; positive”.

For CC(=O)OCCCCCCBr, the mutagenic call (Species/Cell Type: Mammalian polychromatic erythrocytes, Assay Type: Micronucleus test, chromosome aberrations, Assay Code: MNTT, Evaluation Type: Evaluation B (Post-1980)) was “no conclusion”.

In the case of Cc1cccc(OC(=O)N(C)N=O)c1, the mutagenic call (Species/Cell Type: Bacillus subtilis (H17 vs M45T), Assay Type: Rec-assay, spot test, DNA effects (bacterial DNA repair), Assay Code: REX+, Evaluation Type: Evaluation A (Pre-1980)) is reported as “active; positive” and the mutagenic call (Species/Cell Type: Escherichia coli WP2, Assay Type: Tryptophan reverse gene mutation, Assay Code: WP2+, Evaluation Type: Evaluation A (Pre-1980)) is reported as “active; positive”.

COc1cc([C@@H]2c3cc4c(cc3[C@@H](O)[C@H]3COC(=O)[C@H]23)OCO4)cc(OC)c1O was tested, and the mutagenic call [1] was “no conclusion”.

For CC(C(=O)O)c1cccc(C(=O)c2ccccc2)c1 (stereo not given), the mutagenic call (Species/Cell Type: Human lymphocytes, Assay Type: Sister-chromatid exchange (SCE) in vivo, Assay Code: SCY+, Evaluation Type: Evaluation B (Post-1980)) was “active; positive”.

For NCCSSCCN, the mutagenic call [3] was “no conclusion”, the mutagenic call [4] was “no conclusion” and the mutagenic call [5] was “active; positive”.

With CC(C)C(O)(C(=O)OCC1=CC[N@+]2([O-])CCCC12)[C@H](C)O (stereo not given in full) the mutagenic call (Species/Cell Type: Drosophila melanogaster, Assay Type: Sex-linked recessive lethal gene mutation, Assay Code: SRLT, Evaluation Type: Evaluation A (Pre-1980)) was “no conclusion”.

With CCOC(=O)Nc1ccc(-c2c3ccccc3c3cc(N)ccc3[n+]2C)cc1 the mutagenic call [6] was “active; positive”.

For CCCOc1ccc(CC(=O)NN)cc1CN(CC)CC, the mutagenic call (Species/Cell Type: Saccharomyces cerevisiae, Assay Type: Reverse gene mutation, Assay Code: YERT, Evaluation Type: Evaluation A (Pre-1980)) was “no conclusion”.

In the case of CCOC(=O)CC(SP(=O)(OC)OC)C(=O)OCC (stereo not given), the call [7] is reported as “inactive; negative” and the mutagenic call [5] is reported as “active; positive”.

In the case of CCOC(=O)CNC(=O)C=[N+]=[N-], the mutagenic call [6] is reported as “active; positive”.

COP(N)(=O)SC (stereo not given) was tested, and the mutagenic call (Species/Cell Type: Nonhuman, Assay Type: Sister-chromatid exchange (SCE) in vitro, Assay Code: SC2T, Evaluation Type: Evaluation B (Post-1980)) was “no conclusion”.

Nc1ccc2cc3ccccc3cc2c1 was tested, and the mutagenic call (Species/Cell Type: Escherichia coli polA (W3110 vs P3478), Assay Type: Rec-assay, DNA effects (bacterial DNA repair), Assay Code: RE2+, Evaluation Type: Evaluation A (Pre-1980)) was “active; positive”, the mutagenic call [8] was “no conclusion” and the mutagenic call (Species/Cell Type: Mouse (BALB/c-3T3) cells, Assay Type: Cell transformation, Assay Code: CTB-, Evaluation Type: Evaluation A (Pre-1980)) was “inactive; negative”. The mutagenic call (Species/Cell Type: Mouse embryo (AKR/ME) cells, Assay Type: Cell transformation, Assay Code: CTK+, Evaluation Type: Evaluation A (Pre-1980)) was “active; positive”, the call [9] was “active; positive” and the mutagenic call [10] was “active; positive”. For the same molecule, the mutagenic call (Species/Cell Type: Nonhuman, Assay Type: Sister-chromatid exchange (SCE) in vivo, Assay Code: SC3+D, Dose Response: With dose response, Evaluation Type: Evaluation B (Post-1980)) was “active; positive”, the mutagenic call (Species/Cell Type: Saccharomyces cerevisiae, Assay Type: Mitotic recombination or gene conversion, Assay Code: YEH-, Evaluation Type: Evaluation A (Pre-1980)) was “inactive; negative” and the mutagenic call [2] was “active; positive”. For the same molecule, the mutagenic call (Species/Cell Type: Salmonella typhimurium, Assay Type: Forward and reverse gene mutation, host-mediated assay, Assay Code: HMA+, Evaluation Type: Evaluation A (Pre-1980)) was “active; positive” and the mutagenic call (Species/Cell Type: Syrian hamster embryo (SHE) cells, Assay Type: Cell transformation, clonal assay, Assay Code: CTC+, Evaluation Type: Evaluation A (Pre-1980)) was “active; positive”.

Nc1ccc(Nc2ccccc2)cc1 was tested, and the mutagenic call (Species/Cell Type: Neurospora crassa, Assay Type: Aneuploidy, chromosome aberrations, Assay Code: NEN-, Evaluation Type: Evaluation A (Pre-1980)) was “inactive; negative” and the call (Species/Cell Type: Nonhuman, Assay Code: CCG-L, Evaluation Type: Evaluation A (Pre-1980)) was “inactive; negative”.

In the case of Cc1ccc2cc3c(ccc4ccccc43)c3c2c1C(=O)C3, the mutagenic call (Species/Cell Type: Chinese hamster lung (V79) cells, Assay Type: Forward gene mutation at the HPRT or ouabain locus, Assay Code: V79+, Evaluation Type: Evaluation A (Pre-1980)) is reported as “active; positive”, the call (Species/Cell Type: Nonhuman, Assay Code: CCG+L, Evaluation Type: Evaluation A (Pre-1980)) is reported as “active; positive” and the mutagenic call [2] is reported as “active; positive”.

In the case of Nc1ccc(Br)cc1, the mutagenic call (Species/Cell Type: Mouse, Sex: Male, Assay Type: Sperm morphology, Assay Code: SPI-, Evaluation Type: Evaluation A (Pre-1980)) is reported as “inactive; negative” and the mutagenic call [11] is reported as “no conclusion”.

CC(Br)CBr (stereo not given) was tested, and the mutagenic call (Species/Cell Type: Drosophila melanogaster, Assay Type: Sex-linked recessive lethal gene mutation, Assay Code: SRL+, Evaluation Type: Evaluation A (Pre-1980)) was “active; positive”.

In the case of CCCO, the mutagenic call (Species/Cell Type: Nonhuman, Assay Type: Sister-chromatid exchange (SCE) in vitro, Assay Code: SC2-, Evaluation Type: Evaluation A (Pre-1980)) is reported as “inactive; negative”.

With CCN(CC)C(=S)S the call [7] was “inactive; negative” and the mutagenic call (Species/Cell Type: Vicia faba, Assay Type: Chromosome aberrations, Assay Code: VIC+, Evaluation Type: Evaluation A (Pre-1980)) was “active; positive”.

CCCCN(CCCCO)N=O was tested, and the mutagenic call [8] was “no conclusion”, the mutagenic call (Species/Cell Type: Nonhuman, Assay Type: Chromosome aberrations in vitro, Assay Code: CY&-, Evaluation Type: Evaluation A (Pre-1980)) was “inactive; negative” and the call [9] was “active; positive”. The mutagenic call [5] was “active; positive”, the mutagenic call (Species/Cell Type: Nonhuman, Assay Type: Sister-chromatid exchange (SCE) in vitro, Assay Code: SC2T, Evaluation Type: Evaluation A (Pre-1980)) was “no conclusion” and the mutagenic call [6] was “active; positive”.

For NC(=O)N1c2ccccc2C2OC2c2ccccc21 (stereo not given), the mutagenic call [3] was “no conclusion” and the mutagenic call (Species/Cell Type: Salmonella typhimurium (one or more of the five standard strains: TA98, TA100, TA1535, TA1537, and TA1538), Assay Type: Histidine reverse gene mutation, Ames assay, Assay Code: SALT, Evaluation Type: Evaluation A (Pre-1980)) was “no conclusion”.

COc1ccc2c(c1)C(=O)N(CCc1ccc(S(=O)(=O)NC(=O)NC3CCCCC3)cc1)C(=O)C2(C)C was tested, and the mutagenic call [11] was “no conclusion”.

CC(=O)Nc1ccc2c(c1)Cc1cc(NC(C)=O)ccc1-2 was tested, and the mutagenic call [6] was “active; positive”.

For Cc1c(N)nc(C(CC(N)=O)NCC(N)C(N)=O)nc1C(=O)NC(C(=O)NC(C)C(O)C(C)C(=O)NC(C(=O)NCCc1nc(-c2nc(C(=O)NCCC[S+](C)C)cs2)cs1)C(C)O)C(O[C@@H]1O[C@@H](CO)[C@@H](O)[C@H](O)[C@@H]1O[C@H]1O[C@H](CO)[C@@H](O)[C@H](OC(N)=O)[C@@H]1O)c1cnc[nH]1 (stereo not given in full), the mutagenic call [3] was “no conclusion”, the mutagenic call [4] was “no conclusion” and the mutagenic call (Species/Cell Type: Saccharomyces cerevisiae, Assay Type: Mitotic recombination or gene conversion, Assay Code: YEC+, Evaluation Type: Evaluation A (Pre-1980)) was “active; positive”. For the same molecule, the mutagenic call (Species/Cell Type: Saccharomyces cerevisiae, Assay Type: Mitotic recombination or gene conversion, Assay Code: YEH+, Evaluation Type: Evaluation A (Pre-1980)) was “active; positive” and the mutagenic call (Species/Cell Type: Saccharomyces cerevisiae, Assay Type: Reverse gene mutation, Assay Code: YER+, Evaluation Type: Evaluation A (Pre-1980)) was “active; positive”.

For C1CC2OC2C2OC12 (stereo not given), the mutagenic call (Species/Cell Type: Neurospora crassa, Assay Type: Forward gene mutation, Assay Code: NEF-, Evaluation Type: Evaluation A (Pre-1980)) was “inactive; negative”.

O=c1c(O)c(-c2ccc(O)cc2)oc2cc(O)cc(O)c12 was tested, and the mutagenic call (Species/Cell Type: Mammalian polychromatic erythrocytes, Assay Type: Micronucleus test, chromosome aberrations, Assay Code: MNT+, Evaluation Type: Evaluation B (Post-1980)) was “active; positive” and the mutagenic call (Species/Cell Type: Nonhuman, Assay Type: Sister-chromatid exchange (SCE) in vitro, Assay Code: SC2+D*, Activation: With metabolic activation, Dose Response: With dose response, Evaluation Type: Evaluation B (Post-1980)) was “active; positive”.

CC(=O)OC(OC(C)=O)c1ccc([N+](=O)[O-])o1 was tested, and the mutagenic call (Species/Cell Type: Escherichia coli WP2 UVRA, Assay Type: Tryptophan reverse gene mutation, Assay Code: WPU+, Evaluation Type: Evaluation A (Pre-1980)) was “active; positive”, the mutagenic call [10] was “active; positive” and the mutagenic call [6] was “active; positive”.

Reference: PubChem BioAssay AID1259408 (Genetic Toxicology Data Bank (GENE-TOX), 2018)
